Test in all cases: NCI anticancer screen, dose series, 48 h
The subject of assay [1] is DLD-1 colon.
Assay [2] has as its system DMS 114 small cell lung.
Assay [3] deals with DMS 273 small cell lung.
The subject of assay [4] is HOP-18 NSCLC.
Assay [5] concerns KM20L2 colon.
Assay [6] deals with LXFL 529 NSCLC.
Assay [7] concerns M19-MEL melanoma.
Assay [8] concerns SNB-78 CNS.
The test system of assay [9] is XF 498 CNS.
Assay [10] relates to RXF-631 renal.

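In this assay, cells in 96-well plates receive the compound at five concentrations for 48 hours. Endpoints are linearly interpolated between the surrounding concentrations. GI50: concentration for 50% inhibition of growth. The concentration for full growth arrest is given as TGI.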

As for `CC1=NN(c2ccccc2)C(=O)C1C(=O)C(=O)Nc1ccc(C)cc1C` (configuration not stated), the TGI in assay [1], in [2], in [3], in assay [4], in assay [5] and in assay [6] was above 100 µM throughout. Moreover, the TGI in assay [7] and in assay [8] was above 100 µM in each case.
For `C=CCn1c(=S)sc2c(=O)[nH]cnc21`, the TGI in assay [1], in assay [2], in assay [3], in assay [5], in assay [6] and in assay [7] was above 100 µM each time. For the same compound, the TGI in assay [8] and in [9] was above 100 µM throughout.
Consider `COc1ccc(C2S/C(=C\c3cccc([N+](=O)[O-])c3)C(=O)N2NC(=O)Cc2ccccc2)cc1` (configuration not stated), for which the TGI in assay [1], in [2], in assay [3], in assay [4], in assay [6] and in assay [7] was above 100 µM in each case.
On to `Cn1c(C2CC(C)(C)c3c2c2ccccc2n3C)cc2ccccc21` (configuration not stated), for which the TGI in assay [1], in assay [2], in assay [3], in assay [5], in assay [6] and in assay [7] was above 304 µM throughout. This compound also yielded a TGI in assay [9] above 304 µM.
Regarding `COC(=O)[C@]1(C)CCC[C@]2(C)C3CC4OOC3(C=C4C(C)C)CCC21` (some centres not stated), the TGI in [1] was found to be 29.1 µM; in assay [2] it was 28 µM; in assay [3] it was 34.5 µM; in assay [5] it was 32 µM; in assay [6] it was 27.2 µM; in [8] it was 32.3 µM.
As to `O=C1CSc2ccncc2N1`, the TGI in assay [1], in assay [2], in assay [3], in assay [5], in assay [6] and in assay [7] was above 100 µM throughout. For the same compound, the TGI in assay [9] was above 100 µM.
Regarding `N.N.N.N.O=S(=O)([O-])[O-].[Co+3].[OH3+].[OH3+]`, the TGI in assay [1], in [3], in assay [5], in [6] and in assay [8] was above 100 µM throughout. Further, the GI50 in assay [6] was above 100 µM.
In the case of `COC(=O)c1c/c(=N\NC(=O)CC(=O)Nc2ccc(C)cc2)c2ccccc2o1`, the TGI in assay [1], in [2], in assay [3], in [4], in assay [5] and in assay [6] was above 100 µM each time. For the same compound, the TGI in assay [7], in [8] and in assay [9] was above 100 µM in each case.
With `COC1=CC(=O)C2[C@H]3Cc4ccccc4[C@H]3C2(C)C1=O` (some centres not stated), the TGI in [1], in assay [3], in [5], in assay [6], in assay [7] and in assay [10] was above 100 µM in each case. In addition, the TGI in [8] and in assay [9] was above 100 µM in each case.
With `CCCN1CN(C(C(=O)N[C@@H]2C(=O)N3C(C(=O)O)=C(C)CSC23)c2ccccc2)CSC1=S` (some centres not stated), the TGI in assay [1], in assay [3], in [4], in assay [5], in [6] and in [7] was above 100 µM throughout. In addition, the TGI in assay [8] is above 100 µM.
